Laboratory results: patent US20220162192A1 (ESCAPE Bio, Inc., priority 2019, published 2022)
Read-outs that look alike come from different tables or passages of the source.

Assays:
[1] = target: T1, Recombinant wild type LRRK2 protein (Homo sapiens, UniProt Q5S007); experiment: LanthaScreen Kinase Activity Assay (TR-FRET), wild type LRRK2; type: biochemical; conditions: 25 μM ATP, 400 nM LRRKtide, 2.9 nM kinase, 60 min at room temperature, read-out: LRRK2 WT IC50
T1 construct: purchased Life Technologies PR8604B
T1 sequence (Q5S007 whole entry): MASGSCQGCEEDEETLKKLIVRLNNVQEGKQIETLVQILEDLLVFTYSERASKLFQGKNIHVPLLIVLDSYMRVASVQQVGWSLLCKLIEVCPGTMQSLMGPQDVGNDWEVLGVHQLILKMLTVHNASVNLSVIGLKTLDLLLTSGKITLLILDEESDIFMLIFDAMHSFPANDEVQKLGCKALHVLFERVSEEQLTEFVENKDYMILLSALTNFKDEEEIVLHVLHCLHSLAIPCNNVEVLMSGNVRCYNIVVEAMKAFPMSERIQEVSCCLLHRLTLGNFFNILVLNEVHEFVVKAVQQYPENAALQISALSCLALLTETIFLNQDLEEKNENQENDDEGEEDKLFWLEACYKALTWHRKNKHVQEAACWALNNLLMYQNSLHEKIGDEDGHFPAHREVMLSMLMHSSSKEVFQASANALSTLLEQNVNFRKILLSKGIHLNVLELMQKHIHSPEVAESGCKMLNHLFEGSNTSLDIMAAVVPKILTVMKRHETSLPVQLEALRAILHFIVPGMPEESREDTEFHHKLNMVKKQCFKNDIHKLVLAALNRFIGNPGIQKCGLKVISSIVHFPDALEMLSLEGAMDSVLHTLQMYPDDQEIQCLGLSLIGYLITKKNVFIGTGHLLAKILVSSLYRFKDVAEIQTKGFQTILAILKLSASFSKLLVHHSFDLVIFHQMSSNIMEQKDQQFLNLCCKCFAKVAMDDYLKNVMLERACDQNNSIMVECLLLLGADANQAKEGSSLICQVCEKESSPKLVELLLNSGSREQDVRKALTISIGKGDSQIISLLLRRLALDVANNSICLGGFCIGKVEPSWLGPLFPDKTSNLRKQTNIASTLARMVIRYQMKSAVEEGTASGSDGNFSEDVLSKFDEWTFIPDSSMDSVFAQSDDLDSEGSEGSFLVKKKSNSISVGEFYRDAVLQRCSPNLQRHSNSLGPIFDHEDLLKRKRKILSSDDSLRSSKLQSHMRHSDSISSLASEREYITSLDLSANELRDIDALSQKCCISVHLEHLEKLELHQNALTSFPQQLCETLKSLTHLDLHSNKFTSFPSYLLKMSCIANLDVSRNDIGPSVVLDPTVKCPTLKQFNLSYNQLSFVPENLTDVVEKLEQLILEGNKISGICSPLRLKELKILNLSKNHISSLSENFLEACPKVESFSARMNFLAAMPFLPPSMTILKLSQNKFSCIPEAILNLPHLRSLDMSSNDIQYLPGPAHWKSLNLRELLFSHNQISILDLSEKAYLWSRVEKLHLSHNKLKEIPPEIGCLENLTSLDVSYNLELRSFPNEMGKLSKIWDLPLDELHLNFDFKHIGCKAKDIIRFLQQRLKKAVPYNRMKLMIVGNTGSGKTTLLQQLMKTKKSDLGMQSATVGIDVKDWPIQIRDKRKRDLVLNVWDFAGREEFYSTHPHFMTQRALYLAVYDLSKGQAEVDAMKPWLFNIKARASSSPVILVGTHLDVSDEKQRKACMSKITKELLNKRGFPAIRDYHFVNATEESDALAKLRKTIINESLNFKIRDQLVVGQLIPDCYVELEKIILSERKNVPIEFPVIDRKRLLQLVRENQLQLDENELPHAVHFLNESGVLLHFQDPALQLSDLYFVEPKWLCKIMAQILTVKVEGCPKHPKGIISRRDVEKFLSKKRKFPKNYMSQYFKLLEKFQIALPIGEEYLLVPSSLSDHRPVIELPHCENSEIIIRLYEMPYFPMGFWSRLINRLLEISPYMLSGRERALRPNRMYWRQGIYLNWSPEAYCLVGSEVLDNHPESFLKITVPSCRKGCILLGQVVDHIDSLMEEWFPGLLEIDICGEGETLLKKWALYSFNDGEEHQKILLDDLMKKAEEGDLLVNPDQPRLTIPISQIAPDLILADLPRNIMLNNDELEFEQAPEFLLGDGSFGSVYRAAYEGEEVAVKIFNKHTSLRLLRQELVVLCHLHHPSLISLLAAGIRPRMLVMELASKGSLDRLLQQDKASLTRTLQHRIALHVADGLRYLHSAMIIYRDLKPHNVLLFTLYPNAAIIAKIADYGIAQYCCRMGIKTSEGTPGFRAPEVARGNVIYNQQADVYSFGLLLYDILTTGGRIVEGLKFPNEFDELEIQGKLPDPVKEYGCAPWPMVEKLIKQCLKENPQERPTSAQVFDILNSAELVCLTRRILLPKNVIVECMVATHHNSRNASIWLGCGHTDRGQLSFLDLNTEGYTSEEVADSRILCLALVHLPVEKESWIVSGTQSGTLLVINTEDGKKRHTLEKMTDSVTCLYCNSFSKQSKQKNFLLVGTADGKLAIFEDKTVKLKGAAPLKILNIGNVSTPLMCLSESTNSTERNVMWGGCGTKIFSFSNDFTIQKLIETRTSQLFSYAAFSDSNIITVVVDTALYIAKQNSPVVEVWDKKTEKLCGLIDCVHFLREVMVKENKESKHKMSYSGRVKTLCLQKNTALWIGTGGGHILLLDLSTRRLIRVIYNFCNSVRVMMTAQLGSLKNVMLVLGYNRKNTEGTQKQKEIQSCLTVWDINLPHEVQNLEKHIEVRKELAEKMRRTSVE
Outline: (§1)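 Recombinant wild-type or G2019S LRRK2 (2.9 nM final) phosphorylated fluorescein-LRRKtide (400 nM) with 25 μM ATP in 50 mM Tris pH 8.5, 5 mM MgCl2, 1 mM EGTA, 0.01% Brij-35, 2 mM DTT for 60 min at RT. After EDTA stop, Tb-anti-pERM TR-FRET (520/495 nm ratio) was read. IC50 values came from 11-point, 3-fold compound dilutions.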

[2] = target: T2, Recombinant G2019S-LRRK2 protein (Homo sapiens, UniProt Q5S007, G2019S); experiment: LanthaScreen Kinase Activity Assay (TR-FRET), G2019S-LRRK2; type: biochemical; conditions: class symbols; 25 μM ATP, 400 nM LRRKtide, 2.9 nM kinase, 60 min at room temperature
T2 construct: purchased Life Technologies PV4881
T2 sequence (Q5S007 whole entry G2019S): as the sequence (Q5S007 whole entry) above, with G2019S counted along it
Outline: as §1

Compound: CC1(C)c2nncn2CCN1C(=O)Nc1ccc2[nH]nc(-c3ccoc3)c2c1 [Example 172, N-(3-(Furan-3-yl)-1H-indazol-5-yl)-8,8-dimethyl-5,6-dihydro-[1,2,4]triazolo[4,3-a]pyrazine-7(8H)-carboxamide]
- IC50 ([1]; class symbols): 100 to 1000 nM
- IC50 [2]: 100 to 1000 nM

Compound: Cc1cc2c(C)ncn2c(C)c1C(=O)Nc1ccc2[nH]nc(C)c2c1 [Example 148, 1,5,7-Trimethyl-N-(3-methyl-1H-indazol-5-yl)imidazo[1,5-a]pyridine-6-carboxamide]
- IC50 ([1]; class symbols): 100 to 1000 nM
- IC50 [2]: ≤ 100 nM

Compound: COc1ccncc1-c1n[nH]c2ccc(NC(=O)c3c(F)cc4c(cnn4C)c3F)cc12 [Example 102, 4,6-Difluoro-N-(3-(4-methoxypyridin-3-yl)-1H-indazol-5-yl)-1-methyl-1H-indazole-5-carboxamide]
- IC50 ([1]; class symbols): 100 to 1000 nM
- IC50 [2]: ≤ 100 nM

Compound: Cc1cc2c(C)ncn2c(C)c1C(=O)Nc1ccc2[nH]nc(-c3ccoc3)c2c1 [Example 147, N-(3-(Furan-3-yl)-1H-indazol-5-yl)-1,5,7-trimethylimidazo[1,5-a]pyridine-6-carboxamide]
- IC50 ([1]; class symbols): ≤ 100 nM
- IC50 [2]: ≤ 100 nM

Compound: Cn1ncc2c(F)c(C(=O)Nc3ccc4[nH]nc(-c5ncco5)c4c3)c(F)cc21 [Example 138, 4,6-Difluoro-1-methyl-N-(3-(oxazol-2-yl)-1H-indazol-5-yl)-1H-indazole-5-carboxamide]
- IC50 ([1]; class symbols): 100 to 1000 nM
- IC50 [2]: ≤ 100 nM

Compound: Cc1nocc1-c1n[nH]c2ccc(NC(=O)c3c(F)cc4c(cnn4C)c3F)cc12 [Example 30, 4,6-Difluoro-1-methyl-N-(3-(3-methylisoxazol-4-yl)-1H-indazol-5-yl)-1H-indazole-5-carboxamide]
- IC50 ([1]; class symbols): 100 to 1000 nM
- IC50 [2]: ≤ 100 nM

Compound: Cn1ncc2c1CCC(C(=O)Nc1ccc3[nH]nc(-c4ccoc4)c3c1)C2 (single isomer, unassigned) [Example 161b]
- IC50 ([1]; class symbols): 100 to 1000 nM
- IC50 [2]: ≤ 100 nM

Compound: Cc1cc2nn[nH]c2cc1C(=O)Nc1ccc2[nH]nc(-c3ccncc3)c2c1 [Example 1]
- IC50 ([1]; class symbols): 100 to 1000 nM
- IC50 [2]: ≤ 100 nM

Compound: Cc1cc2cnnn2cc1C(=O)Nc1ccc2[nH]nc(-c3ccccc3)c2c1 [Example 43, 5-Methyl-N-(3-phenyl-1H-indazol-5-yl)-[1,2,3]triazolo[1,5-a]pyridine-6-carboxamide]
- IC50 ([1]; class symbols): ≤ 100 nM
- IC50 [2]: ≤ 100 nM

Compound: Cn1ncc2c(F)c(C(=O)Nc3ccc4[nH]nc(-c5ccccc5C#N)c4c3)c(F)cc21 [Example 74, N-(3-(2-Cyanophenyl)-1H-indazol-5-yl)-4,6-difluoro-1-methyl-1H-indazole-5-carboxamide]
- IC50 ([1]; numeric bound instead of class symbol): > 10000 nM
- IC50 [2]: 100 to 1000 nM

Compound: Cn1ncc2c(F)c(C(=O)Nc3ccc4[nH]nc(-c5cncc(N6CCOCC6)c5)c4c3)c(F)cc21 [Example 98, 4,6-Difluoro-1-methyl-N-(3-(5-morpholinopyridin-3-yl)-1H-indazol-5-yl)-1H-indazole-5-carboxamide]
- IC50 ([1]; class symbols): ≤ 100 nM
- IC50 [2]: ≤ 100 nM

Compound: Cn1ncc2c(F)c(C(=O)Nc3ccc4[nH]nc(N5CCC5)c4c3)c(F)cc21 [Example 139, N-(3-(Azetidin-1-yl)-1H-indazol-5-yl)-4,6-difluoro-1-methyl-1H-indazole-5-carboxamide]
- IC50 ([1]; class symbols): 1000 to 10000 nM
- IC50 [2]: 100 to 1000 nM

Compound: Cn1ncc2c(F)c(C(=O)Nc3ccc4[nH]nc(-c5ccccc5)c4c3)c(F)cc21 [Example 50, 4,6-Difluoro-1-methyl-N-(3-phenyl-1H-indazol-5-yl)-1H-indazole-5-carboxamide]
- IC50 ([1]; class symbols): 100 to 1000 nM
- IC50 [2]: ≤ 100 nM

Compound: Cc1cc2cncn2cc1C(=O)Nc1ccc2[nH]nc(-c3ccoc3)c2c1 [Example 146, N-(3-(Furan-3-yl)-1H-indazol-5-yl)-7-methylimidazo[1,5-a]pyridine-6-carboxamide]
- IC50 ([1]; class symbols): ≤ 100 nM
- IC50 [2]: ≤ 100 nM

Compound: O=C(Nc1ccc2[nH]nc(-c3ccoc3)c2c1)c1ccn2ccnc2c1 [Example 118, N-(3-(Furan-3-yl)-1H-indazol-5-yl)imidazo[1,2-a]pyridine-7-carboxamide]
- IC50 ([1]; class symbols): 100 to 1000 nM
- IC50 [2]: 100 to 1000 nM

Compound: Cc1oncc1-c1n[nH]c2ccc(NC(=O)c3c(F)cc4c(cnn4C)c3F)cc12 [Example 29, 4,6-Difluoro-1-methyl-N-(3-(5-methylisoxazol-4-yl)-1H-indazol-5-yl)-1H-indazole-5-carboxamide]
- IC50 ([1]; class symbols): 100 to 1000 nM
- IC50 [2]: ≤ 100 nM

Compound: Cn1ncc2c(F)c(C(=O)Nc3ccc4[nH]nc(C5CCOC5)c4c3)c(F)cc21 (centres unmarked) [Example 104, 4,6-Difluoro-1-methyl-N-(3-(tetrahydrofuran-3-yl)-1H-indazol-5-yl)-1H-indazole-5-carboxamide]
- IC50 ([1]; class symbols): 1000 to 10000 nM
- IC50 [2]: 100 to 1000 nM

Compound: CN(C)c1ccc(-c2n[nH]c3ccc(NC(=O)c4c(F)cc5c(cnn5C)c4F)cc23)cc1 [Example 87, N-(3-(4-(Dimethylamino)phenyl)-1H-indazol-5-yl)-4,6-difluoro-1-methyl-1H-indazole-5-carboxamide]
- IC50 ([1]; class symbols): ≤ 100 nM
- IC50 [2]: ≤ 100 nM

Compound: Cn1ncc2c(F)c(C(=O)Nc3ccc4[nH]nc(Cc5ccccc5)c4c3)c(F)cc21 [Example 140, N-(3-Benzyl-1H-indazol-5-yl)-4,6-difluoro-1-methyl-1H-indazole-5-carboxamide]
- IC50 ([1]; class symbols): 1000 to 10000 nM
- IC50 [2]: 100 to 1000 nM

Compound: Cc1c(C(=O)Nc2ccc3[nH]nc(-c4ccoc4)c3c2)cnc2cncn12 [Example 113, N-(3-(Furan-3-yl)-1H-indazol-5-yl)-4-methylimidazo[1,5-a]pyrimidine-3-carboxamide]
- IC50 ([1]; class symbols): ≤ 100 nM
- IC50 [2]: ≤ 100 nM

Compound: Cn1ncc2c(F)c(C(=O)Nc3ccc4[nH]nc(-c5ccon5)c4c3)c(F)cc21 [Example 135, 4,6-Difluoro-N-(3-(isoxazol-3-yl)-1H-indazol-5-yl)-1-methyl-1H-indazole-5-carboxamide]
- IC50 ([1]; class symbols): ≤ 100 nM
- IC50 [2]: ≤ 100 nM

Compound: COc1cccc(-c2n[nH]c3ccc(NC(=O)c4c(F)cc5c(cnn5C)c4F)cc23)c1 [Example 84, 4,6-Difluoro-N-(3-(3-methoxyphenyl)-1H-indazol-5-yl)-1-methyl-1H-indazole-5-carboxamide]
- IC50 ([1]; class symbols): ≤ 100 nM
- IC50 [2]: ≤ 100 nM

Compound: O=C(Nc1ccc2[nH]nc(-c3ccoc3)c2c1)C1CCc2nncn2C1 (single isomer, unassigned) [Example 162b]
- IC50 ([1]; class symbols): 100 to 1000 nM
- IC50 [2]: ≤ 100 nM

Compound: Cc1cc(C(=O)Nc2ccc3[nH]nc(-c4ccncc4)c3c2)cc2nn[nH]c12 [Example 13, 7-Methyl-N-(3-(pyridin-4-yl)-1H-indazol-5-yl)-1H-benzo[d][1,2,3]triazole-5-carboxamide]
- IC50 ([1]; class symbols): 100 to 1000 nM
- IC50 [2]: 100 to 1000 nM

Compound: O=C(Nc1ccc2[nH]nc(-c3ccoc3)c2c1)c1ccc2cnsc2c1 [Example 156, N-(3-(Furan-3-yl)-1H-indazol-5-yl)benzo[d]isothiazole-6-carboxamide]
- IC50 ([1]; class symbols): ≤ 100 nM
- IC50 [2]: ≤ 100 nM

Compound: Cc1c(C(=O)Nc2ccc3[nH]nc(-c4ccncc4)c3c2)ccc2[nH]nnc12 [Example 12, 4-Methyl-N-(3-(pyridin-4-yl)-1H-indazol-5-yl)-1H-benzo[d][1,2,3]triazole-5-carboxamide]
- IC50 ([1]; class symbols): 100 to 1000 nM
- IC50 [2]: ≤ 100 nM

Compound: O=C(Nc1ccc2[nH]nc(-c3ccoc3)c2c1)c1ccc2nsnc2c1 [Example 120, N-(3-(Furan-3-yl)-1H-indazol-5-yl)benzo[c][1,2,5]thiadiazole-5-carboxamide]
- IC50 ([1]; class symbols): 100 to 1000 nM
- IC50 [2]: ≤ 100 nM

Compound: Cc1nn2ccncc2c1C(=O)Nc1ccc2[nH]nc(-c3ccoc3)c2c1 [Example 164, N-(3-(furan-3-yl)-1H-indazol-5-yl)-2-methylpyrazolo[1,5-a]pyrazine-3-carboxamide]
- IC50 ([1]; class symbols): 100 to 1000 nM
- IC50 [2]: 100 to 1000 nM

Compound: Cn1ncc2c(F)c(C(=O)Nc3ccc4[nH]nc(-n5ccnc5)c4c3)c(F)cc21 [Example 141, N-(3-(1H-Imidazol-1-yl)-1H-indazol-5-yl)-4,6-difluoro-1-methyl-1H-indazole-5-carboxamide]
- IC50 ([1]; class symbols): 100 to 1000 nM
- IC50 [2]: ≤ 100 nM

Compound: Cn1ncc2c(F)c(C(=O)Nc3ccc4[nH]nc(C5=CCCO5)c4c3)c(F)cc21 [Example 72, N-(3-(4,5-Dihydrofuran-2-yl)-1H-indazol-5-yl)-4,6-difluoro-1-methyl-1H-indazole-5-carboxamide]
- IC50 ([1]; class symbols): 1000 to 10000 nM
- IC50 [2]: 100 to 1000 nM

Compound: Cn1ncc2c(F)c(C(=O)Nc3ccc4[nH]nc(-c5cncnc5)c4c3)c(F)cc21 [Example 34, 4,6-Difluoro-1-methyl-N-(3-(pyrimidin-5-yl)-1H-indazol-5-yl)-1H-indazole-5-carboxamide]
- IC50 ([1]; class symbols): 100 to 1000 nM
- IC50 [2]: ≤ 100 nM
